In ChEMBL document CHEMBL5291721, “A preclinical secondary pharmacology resource illuminates target-adverse drug reaction associations of marketed drugs” (Nat Commun, 2023):

Legend:
Adenosine receptor A3 = biological target: T1, Adenosine receptor A3 (Homo sapiens, UniProt P0DMS8)
T1 sequence (P0DMS8 whole entry): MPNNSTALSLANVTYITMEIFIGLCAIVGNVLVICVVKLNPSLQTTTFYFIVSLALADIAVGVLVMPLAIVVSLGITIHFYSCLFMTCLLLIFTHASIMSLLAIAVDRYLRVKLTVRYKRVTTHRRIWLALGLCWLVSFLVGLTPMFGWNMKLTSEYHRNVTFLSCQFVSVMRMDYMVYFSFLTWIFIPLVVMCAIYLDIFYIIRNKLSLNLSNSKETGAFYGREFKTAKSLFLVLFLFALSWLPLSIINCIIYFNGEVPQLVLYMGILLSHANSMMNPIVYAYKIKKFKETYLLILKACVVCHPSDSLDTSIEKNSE

[1] = biological target: Sodium-dependent serotonin transporter (Homo sapiens, UniProt P31645)
Chain of Sodium-dependent serotonin transporter (P31645 whole entry): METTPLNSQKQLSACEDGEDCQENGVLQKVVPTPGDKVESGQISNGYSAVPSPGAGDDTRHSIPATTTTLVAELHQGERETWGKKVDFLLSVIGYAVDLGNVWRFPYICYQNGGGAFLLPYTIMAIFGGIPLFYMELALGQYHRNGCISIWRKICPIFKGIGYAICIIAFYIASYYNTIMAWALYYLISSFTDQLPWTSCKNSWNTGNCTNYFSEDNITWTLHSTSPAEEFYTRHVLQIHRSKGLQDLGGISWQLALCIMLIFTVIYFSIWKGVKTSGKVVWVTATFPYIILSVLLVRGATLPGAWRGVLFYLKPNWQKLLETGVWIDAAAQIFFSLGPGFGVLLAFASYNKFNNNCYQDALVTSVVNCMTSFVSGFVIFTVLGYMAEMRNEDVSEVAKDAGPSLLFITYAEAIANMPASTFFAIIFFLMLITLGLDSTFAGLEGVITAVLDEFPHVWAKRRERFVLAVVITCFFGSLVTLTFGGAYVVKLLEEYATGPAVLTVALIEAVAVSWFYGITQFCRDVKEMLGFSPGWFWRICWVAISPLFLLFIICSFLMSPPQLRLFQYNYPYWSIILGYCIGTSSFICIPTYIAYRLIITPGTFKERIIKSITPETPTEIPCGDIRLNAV

[2] = biological target: T2, Alpha-2B adrenergic receptor (Homo sapiens, UniProt P18089)
T2 sequence (P18089 whole entry): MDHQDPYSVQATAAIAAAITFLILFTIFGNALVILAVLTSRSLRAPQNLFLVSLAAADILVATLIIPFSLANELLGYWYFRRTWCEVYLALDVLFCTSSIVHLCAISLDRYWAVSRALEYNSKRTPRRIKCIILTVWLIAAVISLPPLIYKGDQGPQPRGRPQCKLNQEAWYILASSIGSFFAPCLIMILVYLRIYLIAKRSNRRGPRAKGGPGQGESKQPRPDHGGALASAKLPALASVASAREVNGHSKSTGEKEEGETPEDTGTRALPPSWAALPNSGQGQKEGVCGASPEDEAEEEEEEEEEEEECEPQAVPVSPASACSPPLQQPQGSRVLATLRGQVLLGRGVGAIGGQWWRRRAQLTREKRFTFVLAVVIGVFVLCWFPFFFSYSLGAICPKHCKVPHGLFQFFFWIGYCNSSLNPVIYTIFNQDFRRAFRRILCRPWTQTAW

[3] = biological target: T3, Alpha-2C adrenergic receptor (Homo sapiens, UniProt P18825); format: functional
T3 sequence (P18825 whole entry): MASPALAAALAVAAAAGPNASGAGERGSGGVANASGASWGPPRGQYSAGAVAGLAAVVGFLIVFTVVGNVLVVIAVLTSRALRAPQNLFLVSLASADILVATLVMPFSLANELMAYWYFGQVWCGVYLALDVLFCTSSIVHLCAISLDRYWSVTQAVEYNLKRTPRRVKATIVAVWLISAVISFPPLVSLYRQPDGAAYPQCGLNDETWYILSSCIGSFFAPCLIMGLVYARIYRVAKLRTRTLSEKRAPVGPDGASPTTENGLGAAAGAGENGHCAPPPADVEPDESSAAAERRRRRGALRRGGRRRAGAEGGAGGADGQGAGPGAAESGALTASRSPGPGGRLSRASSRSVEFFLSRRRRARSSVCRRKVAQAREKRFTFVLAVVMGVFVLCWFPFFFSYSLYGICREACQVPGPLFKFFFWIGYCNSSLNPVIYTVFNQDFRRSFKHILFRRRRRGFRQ

[4] = biological target: T4, Cholecystokinin receptor type A (Homo sapiens, UniProt P32238)
T4 sequence (P32238 whole entry): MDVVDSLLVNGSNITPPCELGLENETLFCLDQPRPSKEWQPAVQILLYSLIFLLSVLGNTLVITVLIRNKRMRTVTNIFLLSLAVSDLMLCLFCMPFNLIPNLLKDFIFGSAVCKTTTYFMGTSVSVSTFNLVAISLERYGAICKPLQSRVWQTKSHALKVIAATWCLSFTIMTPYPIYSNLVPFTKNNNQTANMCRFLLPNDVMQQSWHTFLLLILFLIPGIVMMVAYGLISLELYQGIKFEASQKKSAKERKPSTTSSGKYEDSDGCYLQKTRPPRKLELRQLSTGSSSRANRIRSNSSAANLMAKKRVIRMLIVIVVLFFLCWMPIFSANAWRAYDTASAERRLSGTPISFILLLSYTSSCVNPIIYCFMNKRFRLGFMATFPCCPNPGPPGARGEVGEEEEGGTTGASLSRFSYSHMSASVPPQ

[5] = biological target: T5, 5-hydroxytryptamine receptor 2C (Homo sapiens, UniProt P28335)
T5 sequence (P28335 whole entry): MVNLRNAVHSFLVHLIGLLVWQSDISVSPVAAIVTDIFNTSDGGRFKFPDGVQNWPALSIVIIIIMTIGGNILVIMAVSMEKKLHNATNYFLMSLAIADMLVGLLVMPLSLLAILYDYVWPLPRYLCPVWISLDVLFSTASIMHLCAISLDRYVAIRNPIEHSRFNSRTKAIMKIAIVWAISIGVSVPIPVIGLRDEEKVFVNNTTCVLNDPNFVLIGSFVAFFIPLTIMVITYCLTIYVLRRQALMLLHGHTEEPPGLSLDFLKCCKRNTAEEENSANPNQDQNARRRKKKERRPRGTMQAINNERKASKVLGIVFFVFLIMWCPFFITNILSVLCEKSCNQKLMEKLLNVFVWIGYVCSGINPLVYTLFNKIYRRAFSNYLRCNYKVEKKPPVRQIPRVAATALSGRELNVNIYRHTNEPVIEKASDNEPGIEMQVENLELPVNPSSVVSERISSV

Motilin receptor = Motilin receptor (Homo sapiens, UniProt O43193)
Chain of Motilin receptor (O43193 whole entry): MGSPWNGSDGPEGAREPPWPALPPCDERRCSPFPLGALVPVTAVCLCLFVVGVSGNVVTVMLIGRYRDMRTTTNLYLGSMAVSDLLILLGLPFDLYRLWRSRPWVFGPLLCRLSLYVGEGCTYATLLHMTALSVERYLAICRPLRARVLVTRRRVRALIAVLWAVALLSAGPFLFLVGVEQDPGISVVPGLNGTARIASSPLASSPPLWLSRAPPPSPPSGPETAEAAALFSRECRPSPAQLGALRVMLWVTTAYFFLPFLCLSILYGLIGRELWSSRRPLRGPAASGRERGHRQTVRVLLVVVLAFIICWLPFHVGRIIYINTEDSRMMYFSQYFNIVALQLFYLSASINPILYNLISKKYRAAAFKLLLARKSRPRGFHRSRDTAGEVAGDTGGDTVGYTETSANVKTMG

Thromboxane A2 receptor = biological target: T6, Thromboxane A2 receptor (Homo sapiens, UniProt P21731)
T6 sequence (P21731 whole entry): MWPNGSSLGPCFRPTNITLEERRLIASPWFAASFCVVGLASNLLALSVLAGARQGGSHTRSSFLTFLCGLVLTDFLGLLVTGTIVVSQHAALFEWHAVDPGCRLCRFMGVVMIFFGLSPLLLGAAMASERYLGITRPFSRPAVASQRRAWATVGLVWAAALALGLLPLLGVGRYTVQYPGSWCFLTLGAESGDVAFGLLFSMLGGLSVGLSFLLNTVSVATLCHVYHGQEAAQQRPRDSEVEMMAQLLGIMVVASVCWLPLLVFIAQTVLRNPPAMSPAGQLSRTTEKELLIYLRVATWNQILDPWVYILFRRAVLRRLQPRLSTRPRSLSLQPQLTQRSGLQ

[6] = biological target: cGMP-inhibited 3',5'-cyclic phosphodiesterase 3A (Homo sapiens, UniProt Q14432); format: functional
Chain of cGMP-inhibited 3',5'-cyclic phosphodiesterase 3A (Q14432 whole entry): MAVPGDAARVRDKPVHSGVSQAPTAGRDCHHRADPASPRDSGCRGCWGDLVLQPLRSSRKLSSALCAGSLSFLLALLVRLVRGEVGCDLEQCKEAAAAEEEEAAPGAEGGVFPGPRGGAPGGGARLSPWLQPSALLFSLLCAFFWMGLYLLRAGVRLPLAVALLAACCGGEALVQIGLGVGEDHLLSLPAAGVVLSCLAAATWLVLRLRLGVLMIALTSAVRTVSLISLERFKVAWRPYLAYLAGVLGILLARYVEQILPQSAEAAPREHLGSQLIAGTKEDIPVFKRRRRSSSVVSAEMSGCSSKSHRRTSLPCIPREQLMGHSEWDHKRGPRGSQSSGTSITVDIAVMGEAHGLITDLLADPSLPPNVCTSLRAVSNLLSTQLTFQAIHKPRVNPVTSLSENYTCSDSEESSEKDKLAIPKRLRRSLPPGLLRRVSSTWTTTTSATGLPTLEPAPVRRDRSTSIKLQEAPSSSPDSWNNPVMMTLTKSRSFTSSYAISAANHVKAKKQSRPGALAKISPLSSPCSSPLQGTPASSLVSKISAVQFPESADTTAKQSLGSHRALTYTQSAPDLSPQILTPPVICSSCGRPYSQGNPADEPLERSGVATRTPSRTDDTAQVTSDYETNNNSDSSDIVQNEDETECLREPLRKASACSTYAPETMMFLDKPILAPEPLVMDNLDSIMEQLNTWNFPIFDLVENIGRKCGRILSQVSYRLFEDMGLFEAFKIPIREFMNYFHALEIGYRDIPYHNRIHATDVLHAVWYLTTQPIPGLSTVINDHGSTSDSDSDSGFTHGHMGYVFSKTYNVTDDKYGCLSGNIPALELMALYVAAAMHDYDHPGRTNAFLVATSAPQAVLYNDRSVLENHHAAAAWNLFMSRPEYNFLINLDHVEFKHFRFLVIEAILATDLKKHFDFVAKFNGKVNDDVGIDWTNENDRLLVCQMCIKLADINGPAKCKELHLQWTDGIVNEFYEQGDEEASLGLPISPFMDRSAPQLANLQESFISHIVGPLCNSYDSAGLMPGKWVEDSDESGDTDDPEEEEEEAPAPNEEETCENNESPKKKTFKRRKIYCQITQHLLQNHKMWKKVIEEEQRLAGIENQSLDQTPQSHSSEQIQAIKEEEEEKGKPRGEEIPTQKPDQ

[7] = biological target: Gamma-aminobutyric acid receptor subunit alpha-1 (Rattus norvegicus, UniProt P62813); format: functional
Chain of Gamma-aminobutyric acid receptor subunit alpha-1 (P62813 whole entry): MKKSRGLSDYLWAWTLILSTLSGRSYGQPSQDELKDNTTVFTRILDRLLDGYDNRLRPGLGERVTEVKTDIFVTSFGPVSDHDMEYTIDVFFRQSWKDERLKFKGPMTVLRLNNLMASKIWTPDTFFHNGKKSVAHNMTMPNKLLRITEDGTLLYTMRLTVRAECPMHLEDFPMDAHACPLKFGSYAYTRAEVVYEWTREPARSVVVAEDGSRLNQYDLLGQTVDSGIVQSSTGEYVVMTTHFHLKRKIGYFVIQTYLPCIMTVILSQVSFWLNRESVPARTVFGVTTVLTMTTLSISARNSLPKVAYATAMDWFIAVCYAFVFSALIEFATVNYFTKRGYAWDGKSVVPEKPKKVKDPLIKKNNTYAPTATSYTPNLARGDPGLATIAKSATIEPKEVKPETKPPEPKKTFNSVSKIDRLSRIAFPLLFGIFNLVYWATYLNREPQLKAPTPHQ

Mu-type opioid receptor = Mu-type opioid receptor (Homo sapiens, UniProt P35372); assay: biochemical; format: functional
Chain of Mu-type opioid receptor (P35372 whole entry): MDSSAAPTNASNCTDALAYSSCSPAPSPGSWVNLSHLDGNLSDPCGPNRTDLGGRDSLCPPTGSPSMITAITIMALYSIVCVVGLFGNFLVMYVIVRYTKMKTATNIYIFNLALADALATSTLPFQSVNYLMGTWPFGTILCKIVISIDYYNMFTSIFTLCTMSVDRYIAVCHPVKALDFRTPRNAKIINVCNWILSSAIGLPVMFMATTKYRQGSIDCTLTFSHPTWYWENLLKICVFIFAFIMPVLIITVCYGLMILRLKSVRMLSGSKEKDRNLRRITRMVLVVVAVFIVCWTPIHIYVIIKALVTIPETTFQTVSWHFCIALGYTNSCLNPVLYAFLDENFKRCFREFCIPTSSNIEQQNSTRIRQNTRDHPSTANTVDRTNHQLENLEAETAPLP
Further: assay procedure not described here.

Row | Structure (SMILES) | AC50 (Adenosine receptor A3) | AC50 [1] | further results
1 | Cc1cc2c(cc1S(N)(=O)=O)S(=O)(=O)CCC2 | > 30 µM | > 30 µM | –
2 | C[C@H](N[C@@H](CCc1ccccc1)C(=O)O)C(=O)N1Cc2ccccc2C[C@H]1C(=O)O | > 30 µM | > 30 µM | –
3 | O=C(O)[C@@H]1C[C@@H](O)CN1 | > 30 µM | > 30 µM | –
4 | CC1(C)S[C@@H]2[C@H](/N=C/N3CCCCCC3)C(=O)N2[C@H]1C(=O)O [AMDINOCILLIN] | > 30 µM | > 30 µM | –
5 | CC(=O)[C@]1(N)Cc2c(O)c3c(c(O)c2[C@@H](O[C@H]2C[C@H](O)[C@H](O)CO2)C1)C(=O)c1ccccc1C3=O [AMRUBICIN] | > 30 µM | > 30 µM | –
6 | NC(=O)[C@@H]1CC[C@@H]2CN1C(=O)N2OS(=O)(=O)O [AVIBACTAM] | > 30 µM | > 30 µM | –
7 | CC(C)(C)NC(=O)N[C@H](C(=O)N1C[C@H]2[C@@H]([C@H]1C(=O)NC(CC1CCC1)C(=O)C(N)=O)C2(C)C)C(C)(C)C (some centres undefined) [BOCEPREVIR] | > 30 µM | > 30 µM | –
8 | O=C(O)COCCN1CCN(C(c2ccccc2)c2ccc(Cl)cc2)CC1 (centres undefined) [CETIRIZINE] | > 30 µM | – | AC50 [2]: > 10 µM; AC50 [3]: > 10 µM; AC50 [4]: > 30 µM; AC50 [5]: > 30 µM; AC50 (Motilin receptor): > 10 µM; AC50 (Thromboxane A2 receptor): > 30 µM; AC50 [6]: > 30 µM
9 | Cc1ncc2c(c1O)COC2c1ccc(Cl)cc1 (centres undefined) [CICLETANINE] | > 30 µM | > 30 µM | –
10 | Cc1cn([C@H]2O[C@@H](CO)[C@H](O)[C@H]2F)c(=O)[nH]c1=O [CLEVUDINE] | > 30 µM | > 30 µM | –
11 | N#Cc1ccc(Oc2ccc3c(c2)COB3O)cc1 [CRISABOROLE] | > 30 µM | > 30 µM | AC50 [6]: > 30 µM
12 | CC(=O)[C@H]1CC[C@H]2[C@@H]3C=CC4=CC(=O)CC[C@@]4(C)[C@@H]3CC[C@]12C [DYDROGESTERONE] | > 30 µM | > 30 µM | –
13 | CC(=O)O[C@H]1Cc2ccccc2N(C(N)=O)c2ccccc21 [ESLICARBAZEPINE ACETATE] | > 30 µM | > 30 µM | –
14 | Cc1ccc(S(=O)(=O)NC(=O)NC2CCCCC2)cc1 [GLYCYCLAMIDE] | 12.7 µM | > 30 µM | –
15 | CN1CCCN(C(c2ccccc2)c2ccc(Cl)cc2)CC1 (centres undefined) [HOMOCHLORCYCLIZINE] | > 30 µM | 2.98 µM | –
16 | CC(=O)OCC(=O)[C@@]1(O)CC[C@H]2[C@@H]3CCC4=CC(=O)CC[C@]4(C)[C@H]3[C@@H](O)C[C@@]21C [HYDROCORTISONE ACETATE] | > 30 µM | > 30 µM | –
17 | CC(COc1ccccc1)NC(C)C(O)c1ccc(O)cc1 (centres undefined) [ISOXSUPRINE] | > 30 µM | 5.55 µM | –
18 | O=C(CCC/C=C\C[C@@H]1[C@@H](CC[C@@H](O)CCc2ccccc2)[C@H](O)C[C@@H]1O)OCCCCO[N+](=O)[O-] [LATANOPROSTENE BUNOD] | – | > 30 µM | –

Row | Structure (SMILES) | AC50 (Adenosine receptor A3) | AC50 [1] | further results
19 | Cc1oc(=O)oc1COC(=O)[C@@H]1N2C(=O)[C@@H](NC(=O)[C@H](N)c3ccccc3)[C@H]2SC1(C)C [LENAMPICILLIN] | > 30 µM | > 30 µM | –
20 | COc1ccc(OC)c(C(O)C(C)N)c1 (centres undefined) [METHOXAMINE] | > 30 µM | > 30 µM | –
21 | CC1(CCN2CCCCC2)C(=O)CCc2ccccc21 (centres undefined) [NEPINALONE] | > 30 µM | > 30 µM | –
22 | COC(=O)C[C@](O)(CCCC(C)(C)O)C(=O)O[C@@H]1C(OC)=C[C@]23CCCN2CCc2cc4c(cc2[C@H]13)OCO4 [OMACETAXINE MEPESUCCINATE] | – | > 30 µM | –
23 | COc1cccc(C(=O)CCN[C@@H](C)[C@H](O)c2ccccc2)c1 [OXYFEDRINE] | > 30 µM | 4.77 µM | –
24 | CC[N+](C)(CC)CCOC(=O)C(O)(c1ccccc1)C1CCCCC1 (centres undefined) [OXYPHENONIUM] | > 30 µM | > 30 µM | –
25 | C[C@@H]1C[C@H]2[C@@H]3C[C@H](F)C4=CC(=O)C=C[C@]4(C)[C@H]3[C@@H](O)C[C@]2(C)[C@@]1(O)C(=O)CO [PARAMETHASONE] | > 30 µM | > 30 µM | –
26 | CCC[C@H](N[C@@H](C)C(=O)N1[C@H](C(=O)O)C[C@@H]2CCCC[C@@H]21)C(=O)OCC [PERINDOPRIL] | > 30 µM | > 30 µM | –
27 | N[C@@H](Cc1ccccc1)C(=O)O [PHENYLALANINE] | > 30 µM | > 30 µM | –
28 | CCCn1cnc2c1c(=O)n(CCCCC(C)=O)c(=O)n2C [PROPENTOFYLLINE] | > 30 µM | > 30 µM | –
29 | Clc1ccc(C(Cn2ccnc2)OCc2csc3c(Cl)cccc23)c(Cl)c1 (centres undefined) [SERTACONAZOLE] | 1.63 µM | 2.89 µM | –
30 | CC(OCCN1CCCCCC1)(c1ccccc1)c1ccc(Cl)cc1 (centres undefined) [SETASTINE] | > 30 µM | 21 µM | –
31 | COc1cc(C)c2c(Oc3cccc(C(F)(F)F)c3)c(OC)cc(NC(C)CCCN)c2n1 (centres undefined) [TAFENOQUINE] | – | 10.3 µM | –
32 | O=S1(=O)CCN(CN2CCS(=O)(=O)NC2)CN1 [TAUROLIDINE] | – | > 30 µM | AC50 [2]: 20 µM; AC50 [3]: > 30 µM; AC50 [7]: > 10 µM; AC50 [5]: > 30 µM; AC50 (Mu-type opioid receptor): > 30 µM; AC50 (Thromboxane A2 receptor): > 30 µM; AC50 [6]: > 30 µM
33 | CCCSc1nc(N[C@@H]2C[C@H]2c2ccc(F)c(F)c2)c2nnn([C@@H]3C[C@H](OCCO)[C@@H](O)[C@H]3O)c2n1 [TICAGRELOR] | 0.106 µM | > 30 µM | –
34 | c1ccc2c(SC3=NCCN3)c[nH]c2c1 [TINAZOLINE] | > 30 µM | > 30 µM | –
35 | COc1ccc2c(C(=S)N(C)CC(=O)O)cccc2c1C(F)(F)F [TOLRESTAT] | – | > 30 µM | –
